Source: patent US11331327B2, “Antibacterial use of halogenated salicylanilides” (UNION therapeutics A/S, priority 2014, dated 2022)
In brackets after ≈: the same amount, converted by molar mass. Like-named read-outs stand apart in the source and are kept apart here.

Tested on: S. aureus clinical isolates and S. aureus ATCC 29213
Test: MIC assay according to CLSI criteria, Example 2, S. aureus strains
Assay type: cell-based, Staphylococcus aureus
Conditions: Staphylococcus aureus, read-out: MIC
Protocol: Strains were conserved in Luria Bertani (LB) Broth (S. aureus) or Brain Heart Infusion (BHI) (S. pyogenes) supplemented with glycerol 15% (v/v) at −80° C., and reactivated by isolation on LB (S. aureus) or BHI (S. pyogenes) agar plates. Strains were cultivated in Mueller Hinton (MH) Broth-cation adjusted (S. aureus) or BHI (S. pyogenes). All strains were cultivated aerobically (microaerobically for S. pyogenes strains) at 37° C.
Bacterial cultures were stopped in their exponential growth phase and plates were inoculated with the approximate concentration of 5×10^5 cells per well. Plates were incubated at 37° C. for 18 hours (S. aureus) or 24 hours (S. pyogenes).

Structure (SMILES): CC(=O)O[C@H]1C[C@@]2(C)[C@@H](C[C@@H](O)[C@H]3[C@@]4(C)CC[C@@H](O)[C@@H](C)[C@@H]4CC[C@@]32C)/C1=C(\CCC=C(C)C)C(=O)O [Fusidic acid]
- MIC (ATCC 29213 / MRSA, strain MRSA 15): > 16 µg/mL
- MIC (ATCC 29213 / MRSA, strain MRSA 16): 0.25 µg/mL (≈ 0.484 µM)
- MIC (ATCC 29213 / MRSA, strain MRSA 17): 4 µg/mL (≈ 7.74 µM)
- MIC (ATCC 29213 / MRSA, strain MRSA 18): 0.25 µg/mL (≈ 0.484 µM)
- MIC (ATCC 29213 / MRSA, strain MRSA 19): 0.125 µg/mL (≈ 0.242 µM)
- MIC (ATCC 29213 / MRSA, strain MRSA 20): 0.125 µg/mL (≈ 0.242 µM)
- MIC (ATCC 29213 / MRSA, strain MRSA 21): 0.125 µg/mL (≈ 0.242 µM)
- MIC (ATCC 29213 / MRSA, strain MRSA 22): > 16 µg/mL
- MIC (ATCC 29213 / MRSA, strain MRSA 23): 0.25 µg/mL (≈ 0.484 µM)
- MIC (ATCC 29213 / MRSA, strain MRSA 24): 0.25 µg/mL (≈ 0.484 µM)
- MIC (ATCC 29213 / MRSA, strain MRSA 25): 16 µg/mL (≈ 31 µM)
- MIC (ATCC 29213 / MRSA, strain MRSA 26): 0.5 µg/mL (≈ 0.968 µM)
- MIC (ATCC 29213 / MRSA, strain MRSA 27): 0.25 µg/mL (≈ 0.484 µM)
- MIC (ATCC 29213 / MRSA, strain MRSA 27b): 8 µg/mL (≈ 15.5 µM)
- MIC (ATCC 29213 / MRSA, strain MRSA 28): 0.06 µg/mL (≈ 0.116 µM)
- MIC (ATCC 29213 / MRSA, strain MRSA 29): 4 µg/mL (≈ 7.74 µM)
- MIC (ATCC 29213 / MRSA, strain MRSA 30): 0.125 µg/mL (≈ 0.242 µM)
- MIC (ATCC 29213 / MRSA, strain MRSA 31): 0.25 µg/mL (≈ 0.484 µM)
- MIC (ATCC 29213 / MRSA, strain MRSA 32): 0.5 µg/mL (≈ 0.968 µM)
- MIC (ATCC 29213 / MRSA, strain MRSA 33): 0.5 µg/mL (≈ 0.968 µM)
- MIC (ATCC 29213 / MRSA, strain MRSA 34): 0.25 µg/mL (≈ 0.484 µM)
- MIC (ATCC 29213 / MRSA, strain MRSA 35): 16 µg/mL (≈ 31 µM)
- MIC (ATCC 29213 / MRSA, strain MRSA 36): 8 µg/mL (≈ 15.5 µM)
- MIC (ATCC 29213 / MRSA, strain MRSA 37): 0.5 µg/mL (≈ 0.968 µM)
- MIC (ATCC 29213 / MRSA, strain MRSA 38): 8 µg/mL (≈ 15.5 µM)
- MIC (ATCC 29213 / MRSA, strain MRSA 39): 8 µg/mL (≈ 15.5 µM)
- MIC (ATCC 29213 / MRSA, strain MRSA 40): 0.125 µg/mL (≈ 0.242 µM)
- MIC (ATCC 29213 / MRSA, strain MRSA 41): > 16 µg/mL
- MIC (ATCC 29213 / MRSA, strain MRSA 42): 0.25 µg/mL (≈ 0.484 µM)
- MIC (ATCC 29213 / MRSA, strain MRSA 43): 0.125 µg/mL (≈ 0.242 µM)
- MIC (ATCC 29213 / MRSA, strain MRSA 44): 4 µg/mL (≈ 7.74 µM)
- MIC (ATCC 29213 / MRSA, strain MRSA 45): 0.06 µg/mL (≈ 0.116 µM)
- MIC (ATCC 29213 / MRSA, strain MRSA 46): 0.06 µg/mL (≈ 0.116 µM)
- MIC (ATCC 29213 / MRSA, strain MRSA 47): 0.06 µg/mL (≈ 0.116 µM)
- MIC (ATCC 29213 / MRSA, strain MRSA 48): 2 µg/mL (≈ 3.87 µM)
- MIC (ATCC 29213 / MRSA, strain MRSA 49): 0.25 µg/mL (≈ 0.484 µM)
- MIC (ATCC 29213 / MRSA, strain MRSA 50): 0.03 µg/mL (≈ 0.0581 µM)
- MIC (ATCC 29213 / MRSA, strain MRSA 51): 0.13 µg/mL (≈ 0.252 µM)
- MIC (ATCC 29213 / MRSA, strain MRSA 52): 0.06 µg/mL (≈ 0.116 µM)
- MIC (ATCC 29213 / MRSA, strain MRSA 53): 0.25 µg/mL (≈ 0.484 µM)
- MIC (ATCC 29213 / MRSA, strain MRSA 54): 0.125 µg/mL (≈ 0.242 µM)
- MIC (ATCC 29213 / MRSA, strain MRSA 55): 4 µg/mL (≈ 7.74 µM)
- MIC (ATCC 29213 / MRSA, strain MRSA 56): 0.06 µg/mL (≈ 0.116 µM)
- MIC (ATCC 29213 / MRSA, strain MRSA 57): 0.125 µg/mL (≈ 0.242 µM)
- MIC (ATCC 29213 / MRSA, strain MRSA 58): 4 µg/mL (≈ 7.74 µM)
- MIC (ATCC 29213 / MRSA, strain MRSA 59): 0.06 µg/mL (≈ 0.116 µM)
- MIC (ATCC 29213 / MRSA, strain MRSA 60): 8 µg/mL (≈ 15.5 µM)
- MIC (ATCC 29213 / MRSA, strain MRSA 61): 0.06 µg/mL (≈ 0.116 µM)
- MIC (ATCC 29213 / MRSA, strain MRSA 62): 0.06 µg/mL (≈ 0.116 µM)
- MIC (ATCC 29213 / MRSA, strain MRSA 63): 0.125 µg/mL (≈ 0.242 µM)
- MIC (ATCC 29213 / MRSA, strain MRSA 64): 0.25 µg/mL (≈ 0.484 µM)
- MIC (ATCC 29213 / MRSA, strain MRSA 65): 0.06 µg/mL (≈ 0.116 µM)
- MIC (ATCC 29213 / MRSA, strain MRSA 66): 0.06 µg/mL (≈ 0.116 µM)
- MIC (ATCC 29213 / MRSA, strain MRSA 67): 0.25 µg/mL (≈ 0.484 µM)
- MIC (ATCC 29213 / MRSA, strain MRSA 68): 0.125 µg/mL (≈ 0.242 µM)
- MIC (ATCC 29213 / MRSA, strain MRSA 69): 4 µg/mL (≈ 7.74 µM)
- MIC (ATCC 29213 / MRSA, strain MRSA 70): 8 µg/mL (≈ 15.5 µM)
- MIC (ATCC 29213 / MRSA, strain MRSA 71): 0.06 µg/mL (≈ 0.116 µM)
- MIC (ATCC 29213 / MRSA, strain MRSA 72): 16 µg/mL (≈ 31 µM)
- MIC (ATCC 29213 / MRSA, strain MRSA 73): 0.25 µg/mL (≈ 0.484 µM)
- MIC (ATCC 29213 / MRSA, strain MRSA 74): 0.25 µg/mL (≈ 0.484 µM)
- MIC (ATCC 29213 / MRSA, strain MRSA 75): 0.5 µg/mL (≈ 0.968 µM)
- MIC (ATCC 29213 / MRSA, strain MRSA 76): 0.25 µg/mL (≈ 0.484 µM)
- MIC (ATCC 29213 / MRSA, strain MRSA 77): 16 µg/mL (≈ 31 µM)
- MIC (ATCC 29213 / MRSA, strain MRSA 78): 0.125 µg/mL (≈ 0.242 µM)
- MIC (ATCC 29213 / MRSA, strain MRSA 79): 0.5 µg/mL (≈ 0.968 µM)
- MIC (ATCC 29213 / MRSA, strain MRSA 80): 0.125 µg/mL (≈ 0.242 µM)
- MIC (ATCC 29213 / MRSA, strain MRSA 81): 0.25 µg/mL (≈ 0.484 µM)
- MIC (ATCC 29213 / MRSA, strain MRSA 82): 8 µg/mL (≈ 15.5 µM)
- MIC (ATCC 29213 / MRSA, strain MRSA 83): 0.06 µg/mL (≈ 0.116 µM)
- MIC (ATCC 29213 / MRSA, strain MRSA 84): 8 µg/mL (≈ 15.5 µM)
- MIC (ATCC 29213 / MRSA, strain MRSA 85): 4 µg/mL (≈ 7.74 µM)
- MIC (ATCC 29213 / MRSA, strain MRSA 86): > 16 µg/mL
- MIC (ATCC 29213 / MRSA, strain MRSA 87): 0.125 µg/mL (≈ 0.242 µM)
- MIC (ATCC 29213 / MRSA, strain MRSA 88): 0.06 µg/mL (≈ 0.116 µM)
- MIC (ATCC 29213 / MRSA, strain MRSA 89): 0.06 µg/mL (≈ 0.116 µM)
- MIC (ATCC 29213 / MRSA, strain MRSA 90): 16 µg/mL (≈ 31 µM)
- MIC (ATCC 29213 / MRSA, strain MRSA 91): 0.25 µg/mL (≈ 0.484 µM)
- MIC (ATCC 29213 / MRSA, strain MRSA 92): 8 µg/mL (≈ 15.5 µM)
- MIC (ATCC 29213 / MRSA, strain MRSA 93): 0.02 µg/mL (≈ 0.0387 µM)
- MIC (ATCC 29213 / MRSA, strain MRSA 94): 0.125 µg/mL (≈ 0.242 µM)
- MIC (ATCC 29213 / MRSA, strain MRSA 95): 8 µg/mL (≈ 15.5 µM)
- MIC (ATCC 29213 / MRSA, strain MRSA 96): 0.125 µg/mL (≈ 0.242 µM)
- MIC (ATCC 29213 / MRSA, strain MRSA 97): 8 µg/mL (≈ 15.5 µM)
- MIC (ATCC 29213 / MRSA, strain MRSA 98): 0.06 µg/mL (≈ 0.116 µM)
- MIC (ATCC 29213 / MRSA, strain MRSA 99): 0.125 µg/mL (≈ 0.242 µM)
- MIC (ATCC 29213 / MRSA, strain MRSA 100): 0.125 µg/mL (≈ 0.242 µM)
- MIC (ATCC 29213 / MRSA, strain MRSA 101): 8 µg/mL (≈ 15.5 µM)
- MIC (ATCC 29213 / MRSA, strain MRSA 102): 0.06 µg/mL (≈ 0.116 µM)
- MIC (ATCC 29213 / MRSA, strain MRSA 103): 8 µg/mL (≈ 15.5 µM)
- MIC (ATCC 29213 / MRSA, strain MRSA 104): 0.25 µg/mL (≈ 0.484 µM)
- MIC (ATCC 29213 / MRSA, strain MRSA 105): 0.125 µg/mL (≈ 0.242 µM)
- MIC (ATCC 29213 / MRSA, strain MRSA 106): 0.125 µg/mL (≈ 0.242 µM)
- MIC (ATCC 29213 / MRSA, strain MRSA 107): 0.25 µg/mL (≈ 0.484 µM)
- MIC (ATCC 29213 / MRSA, strain MRSA 108): 4 µg/mL (≈ 7.74 µM)
- MIC (ATCC 29213 / MRSA, strain MRSA 109): 0.25 µg/mL (≈ 0.484 µM)
- MIC (ATCC 29213 / MRSA, strain MRSA 110): 0.06 µg/mL (≈ 0.116 µM)
- MIC (ATCC 29213 / MRSA, strain MRSA 111): 8 µg/mL (≈ 15.5 µM)
- MIC (ATCC 29213 / MRSA, strain MRSA 112): 0.06 µg/mL (≈ 0.116 µM)
- MIC (ATCC 29213 / MRSA, strain MRSA 113): 0.125 µg/mL (≈ 0.242 µM)
- MIC (ATCC 29213 / MSSA, strain MSSA 01): 4 µg/mL (≈ 7.74 µM)
- MIC (ATCC 29213 / MSSA, strain MSSA 02): 4 µg/mL (≈ 7.74 µM)
- MIC (ATCC 29213 / NEWMAN, strain Newman): 0.25 µg/mL (≈ 0.484 µM)
